Values joined by “and” are separate entries in the source; they are usually repeats but may differ in a detail not shown here. Identical values can stand only once.
Test system: ANGIOTENSIN II (AII) VASOPRESSOR RESPONSE
Test: AII Challenge: angiotensin II (AII) vasopressor response in conscious rats
Type: in vivo
Parameters: Response After AII / Change / Average Change: unit not given here
Conditions: for Response After AII / Change / Control Before AII: individual rat; for Control Before AII: in mmHg (unit assumed); for % Inhibition / Average Change: n = 2
Excerpt: By administering a compound of this invention to a rat, and then challenging with angiotensin II, a blockage of the vasopressor response is realized.
Conscious Male Okamoto-Aoki SHR, 16-20 weeks old, weighing approximately 330 g are purchased from Charles River Labs (Wilmington, Mass.). Conscious rats are restrained in a supine position with elastic tape. The area at the base of the tail is locally anesthetized by subcutaneous infiltration with 2% procaine. The ventral caudal artery and vein are isolated, and a cannula made of polyethylene (PE) 10-20 tubing (fused together by heat) is passed into the lower abdominal aorta and vena cava, respectively. The cannula is secured, heparinized (1,000 I.U./ml), sealed and the wound is closed. The animals are placed in plastic restraining cages in an upright position. The cannula is attached to s Statham P23Db pressure transducer, and pulsatile blood pressure is recorded to 10-15 minutes with a Gould Brush recorder. (Chan et al., (Drug Development Res., 18:75-94, 1989).
Angiotensin II (human sequence, Sigma Chem. Co., St. Louis, Mo.) of 0.05 and 0.1 ug/kg i.v. is injected into all rats (predosing response.). Then a test compound, vehicle or a known angiotensin II antagonist is administered i.v., i.p. or orally to each set of rats. The two doses of angiotensin II are given to each rat again at 30, 60, 90, 120, 180, 240 and 300 minutes post dosing the compound or vehicle. The vasopressor response of angiotensin II by a compound is calculated using the vasopressor response (increase in systolic blood pressure) of angiotensin II of each rat predosing the compound as 100%. A compound is considered active if at 30 mg/kg i.v. it antagonized at least 50% of the response.

[1] = 10 mg/kg i.v., AII 0.05 mcg/kg, 30 min post dose
[2] = 10 mg/kg i.v., AII 0.05 mcg/kg, 30 min post dose, listed as Ex. 10
[3] = 10 mg/kg i.v., AII 0.05 mcg/kg, 60 min post dose
[4] = 10 mg/kg i.v., AII 0.05 mcg/kg, 60 min post dose, listed as Ex. 10
[5] = 10 mg/kg i.v., AII 0.1 mcg/kg, 30 min post dose
[6] = 10 mg/kg i.v., AII 0.1 mcg/kg, 30 min post dose, listed as Ex. 10
[7] = 10 mg/kg i.v., AII 0.1 mcg/kg, 60 min post dose
[8] = 10 mg/kg i.v., AII 0.1 mcg/kg, 60 min post dose, listed as Ex. 10
[9] = 20 mg/kg i.v., AII 0.05 mcg/kg, 90 min post dose
[10] = 20 mg/kg i.v., AII 0.05 mcg/kg, 90 min post dose, listed as Ex. 10
[11] = 20 mg/kg i.v., AII 0.05 mcg/kg, 120 min post dose
[12] = 20 mg/kg i.v., AII 0.05 mcg/kg, 120 min post dose, listed as Ex. 10
[13] = 20 mg/kg i.v., AII 0.05 mcg/kg, 180 min post dose
[14] = 20 mg/kg i.v., AII 0.05 mcg/kg, 180 min post dose, listed as Ex. 10
[15] = 20 mg/kg i.v., AII 0.05 mcg/kg, 240 min post dose
[16] = 20 mg/kg i.v., AII 0.05 mcg/kg, 240 min post dose, listed as Ex. 10
[17] = 20 mg/kg i.v., AII 0.05 mcg/kg, 300 min post dose, listed as Ex. 10
[18] = 20 mg/kg i.v., AII 0.05 mcg/kg, 300 min post dose
[19] = 20 mg/kg i.v., AII 0.1 mcg/kg, 90 min post dose
[20] = 20 mg/kg i.v., AII 0.1 mcg/kg, 90 min post dose, listed as Ex. 10
[21] = 20 mg/kg i.v., AII 0.1 mcg/kg, 120 min post dose
[22] = 20 mg/kg i.v., AII 0.1 mcg/kg, 120 min post dose, listed as Ex. 10
[23] = 20 mg/kg i.v., AII 0.1 mcg/kg, 180 min post dose, listed as Ex. 10
[24] = 20 mg/kg i.v., AII 0.1 mcg/kg, 180 min post dose
[25] = 20 mg/kg i.v., AII 0.1 mcg/kg, 240 min post dose, listed as Ex. 10
[26] = 20 mg/kg i.v., AII 0.1 mcg/kg, 240 min post dose
[27] = 20 mg/kg i.v., AII 0.1 mcg/kg, 300 min post dose
[28] = 20 mg/kg i.v., AII 0.1 mcg/kg, 300 min post dose, listed as Ex. 10

Question: With `CCCCc1nc2cc(-c3ccccc3)nn2c(=O)n1Cc1ccc(-c2ccccc2-c2nnn[nH]2)cc1` [Example 10, 2-Butyl-7-phenyl-3-[[2'-(1H-tetrazol-5-yl)[1,1'-biphenyl]-4-yl]methyl]pyrazolo[1,5-a]-1,3,5-triazin-4(3H)-one] as the molecule, how does the “Response After AII” value [1] read?
Answer: 235

Question: And the Change [2]?
Answer: 15 and 5

Question: What about the “Response After AII” value [2] of the same molecule?
Answer: 215

Question: And the “Control Before AII” value [2]?
Answer: 220 and 210

Question: And the “% Inhibition” value [1]?
Answer: 80%

Question: And the “Average Change” value [1]?
Answer: 10

Question: What about the “Control Before AII” value [3] of the same molecule?
Answer: 210

Question: And the Change [4]?
Answer: 45 and 15

Question: And the “Response After AII” value [4]?
Answer: 255 and 230

Question: What about the “Control Before AII” value [4] of the same molecule?
Answer: 215

Question: What about the “% Inhibition” value [3] of the same molecule?
Answer: 40%

Question: What about the “Average Change” value [3] of the same molecule?
Answer: 30

Question: And the “Response After AII” value [5]?
Answer: 245

Question: What about the “Control Before AII” value [5] of the same molecule?
Answer: 210

Question: What about the Change [6] of the same molecule?
Answer: 35 and 5

Question: What about the “Response After AII” value [6] of the same molecule?
Answer: 215

Question: What about the “% Inhibition” value [5] of the same molecule?
Answer: 60%

Question: What about the “Average Change” value [5] of the same molecule?
Answer: 20

Question: What about the “Response After AII” value [7] of the same molecule?
Answer: 250

Question: What about the Change [8] of the same molecule?
Answer: 40 and 10

Question: And the “Response After AII” value [8]?
Answer: 215

Question: And the “Control Before AII” value [8]?
Answer: 210 and 205

Question: What about the “% Inhibition” value [7] of the same molecule?
Answer: 50%

Question: What about the “Average Change” value [7] of the same molecule?
Answer: 25

Question: And the Change [9]?
Answer: 10

Question: And the “Response After AII” value [10]?
Answer: 205 and 215

Question: And the “Control Before AII” value [10]?
Answer: 195 and 205

Question: And the “% Inhibition” value [9]?
Answer: 80%

Question: What about the “Average Change” value [9] of the same molecule?
Answer: 10

Question: And the “Response After AII” value [11]?
Answer: 210

Question: What about the Change [12] of the same molecule?
Answer: 10 and 20

Question: What about the “Response After AII” value [12] of the same molecule?
Answer: 185

Question: What about the “Control Before AII” value [12] of the same molecule?
Answer: 175 and 190

Question: What about the “% Inhibition” value [11] of the same molecule?
Answer: 70%

Question: And the “Average Change” value [11]?
Answer: 15

Question: And the “Control Before AII” value [13]?
Answer: 185

Question: What about the Change [14] of the same molecule?
Answer: 10 and 25

Question: What about the “Response After AII” value [14] of the same molecule?
Answer: 195 and 210

Question: And the “% Inhibition” value [13]?
Answer: 65%

Question: And the “Average Change” value [13]?
Answer: 17.5

Question: What about the “Response After AII” value [15] of the same molecule?
Answer: 190

Question: And the Change [16]?
Answer: 10 and 5

Question: And the “Response After AII” value [16]?
Answer: 205

Question: And the “Control Before AII” value [16]?
Answer: 195 and 185

Question: What about the “% Inhibition” value [15] of the same molecule?
Answer: 85%

Question: And the “Average Change” value [15]?
Answer: 7.5

Question: What about the Change [17] of the same molecule?
Answer: 30 and 15

Question: And the “Response After AII” value [17]?
Answer: 220 and 195

Question: And the “Control Before AII” value [17]?
Answer: 190 and 180

Question: And the “% Inhibition” value [18]?
Answer: 55%

Question: And the “Average Change” value [18]?
Answer: 22.5

Question: And the “Response After AII” value [19]?
Answer: 210

Question: What about the Change [20] of the same molecule?
Answer: 10 and 0

Question: What about the “Response After AII” value [20] of the same molecule?
Answer: 215

Question: What about the “Control Before AII” value [20] of the same molecule?
Answer: 205 and 210

Question: What about the “% Inhibition” value [19] of the same molecule?
Answer: 90%

Question: What about the “Average Change” value [19] of the same molecule?
Answer: 5

Question: What about the “Response After AII” value [21] of the same molecule?
Answer: 200

Question: And the Change [22]?
Answer: 5 and 10

Question: What about the “Response After AII” value [22] of the same molecule?
Answer: 205

Question: What about the “Control Before AII” value [22] of the same molecule?
Answer: 200 and 190

Question: What about the “% Inhibition” value [21] of the same molecule?
Answer: 85%

Question: What about the “Average Change” value [21] of the same molecule?
Answer: 7.5

Question: What about the Change [23] of the same molecule?
Answer: 20 and 15

Question: And the “Response After AII” value [23]?
Answer: 210 and 200

Question: And the “Control Before AII” value [23]?
Answer: 190 and 185

Question: And the “% Inhibition” value [24]?
Answer: 65%

Question: What about the “Average Change” value [24] of the same molecule?
Answer: 17.5

Question: And the Change [25]?
Answer: 17 and 10

Question: What about the “Response After AII” value [25] of the same molecule?
Answer: 217 and 195

Question: And the “Control Before AII” value [25]?
Answer: 200 and 185

Question: What about the “% Inhibition” value [26] of the same molecule?
Answer: 73%

Question: And the “Average Change” value [26]?
Answer: 13.5

Question: And the Change [27]?
Answer: 30

Question: What about the “Response After AII” value [27] of the same molecule?
Answer: 235

Question: And the “Response After AII” value [28]?
Answer: 205

Question: What about the “Control Before AII” value [28] of the same molecule?
Answer: 205 and 175

Question: What about the “% Inhibition” value [27] of the same molecule?
Answer: 40%

Question: And the “Average Change” value [27]?
Answer: 30

From US5358947A, “Angiotensin II receptor blocking 2,3-substituted pyrazolo[1,5-a]-1,3,5-triazin-4(3H)-ones” (American Cyanamid Company, priority 1993, dated 1994)
